Patent US20260217708A1, “FUSED BENZAZEPINE DERIVATIVES FOR USE IN THE TREATMENT OF CANCER AND EPILEPSY” (UCB BIOPHARMA SRL, priority 2023, published 2026)

Tests used:
system Xc^− [1] = target: T1, system Xc^− (Homo sapiens, UniProt Q9UPY5); assay: [^14C]L-Cystine uptake assay; assay type: cell-based; parameters: endogenous in cells; host or cells: H4 cells; details: H4 cells, sodium-free HEPES buffer, 0.5 μM L-[14C]Cystine and 4.5 μM L-Cystine, 1 hour at 37° C.; read-out: pIC50 [^14C] L-Cystine uptake assay (converted)
T1 sequence (Q9UPY5 1-501): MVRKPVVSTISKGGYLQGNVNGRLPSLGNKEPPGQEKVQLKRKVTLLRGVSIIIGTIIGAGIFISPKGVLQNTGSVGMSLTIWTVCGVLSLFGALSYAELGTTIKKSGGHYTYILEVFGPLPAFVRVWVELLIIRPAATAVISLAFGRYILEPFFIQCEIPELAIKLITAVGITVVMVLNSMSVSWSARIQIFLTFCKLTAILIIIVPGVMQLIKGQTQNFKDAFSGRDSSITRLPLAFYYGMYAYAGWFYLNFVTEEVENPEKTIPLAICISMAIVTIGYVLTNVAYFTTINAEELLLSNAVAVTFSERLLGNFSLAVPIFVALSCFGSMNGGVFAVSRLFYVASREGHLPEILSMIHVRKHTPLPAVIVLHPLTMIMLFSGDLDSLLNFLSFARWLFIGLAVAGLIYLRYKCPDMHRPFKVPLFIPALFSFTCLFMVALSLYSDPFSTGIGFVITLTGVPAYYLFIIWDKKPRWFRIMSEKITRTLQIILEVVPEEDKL
T1 sequence (P08195 1-529 partner): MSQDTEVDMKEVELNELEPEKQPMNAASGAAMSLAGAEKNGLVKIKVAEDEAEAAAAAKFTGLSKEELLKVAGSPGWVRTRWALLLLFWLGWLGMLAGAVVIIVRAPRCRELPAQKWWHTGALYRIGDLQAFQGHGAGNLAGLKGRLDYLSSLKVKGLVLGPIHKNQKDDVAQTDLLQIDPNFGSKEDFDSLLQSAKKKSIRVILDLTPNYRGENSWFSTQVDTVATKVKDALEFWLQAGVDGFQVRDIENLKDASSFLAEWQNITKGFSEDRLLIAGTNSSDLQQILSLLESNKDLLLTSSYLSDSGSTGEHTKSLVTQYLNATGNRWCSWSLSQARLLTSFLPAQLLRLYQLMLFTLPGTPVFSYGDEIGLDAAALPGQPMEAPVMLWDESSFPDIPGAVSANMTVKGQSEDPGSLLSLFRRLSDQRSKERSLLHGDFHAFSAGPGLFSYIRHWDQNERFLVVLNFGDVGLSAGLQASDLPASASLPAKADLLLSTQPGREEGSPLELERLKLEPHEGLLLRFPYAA
Summary of the method: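 H4 cells at 5×10^4 cells/well in sodium-free HEPES buffer were preincubated 15 min with compounds (1% DMSO). Uptake of 0.5 μM [14C]L-cystine plus 4.5 μM unlabelled L-cystine ran 1 hour at 37° C on scintillating plates. IC50 was set between 1% DMSO and 50 μM Erastin controls and expressed as pIC50.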

system Xc^− [2] = target: T1, system Xc^−; assay: Cystine-induced glutamate release assay; assay type: cell-based; parameters: endogenous in cells; host or cells: H4 cells; details: H4 cells, sodium-free HEPES buffer, 50 μM L-Cystine, 2 hours, Amplex Red glutamate readout; read-out: pIC50 Cystine-induced glutamate release assay (converted)
Summary of the method: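 H4 cells in sodium-free HEPES buffer (pH 7.4), 2 days after plating; glutamate release induced with 50 μM L-cystine plus compound (1% DMSO), 2 h at 37 °C. Supernatant glutamate measured by Amplex Red fluorescence; IC50/pIC50 derived between 1% DMSO and 50 μM erastin controls.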

## Cc1cc2c(c(F)n1)-c1cccnc1C(CO)C(=O)N2CC(=O)Nc1ccc(C(F)(F)F)cc1 (stereo not shown) [#152, 2-[3-fluoro-10-(hydroxymethyl)-5-methyl-9-oxo-4,8,12-triazatricyclo[9.4.0.0^2,7]pentadeca-1(11),2(7),3,5,12,14-hexaen-8-yl]-N-[4-(trifluoromethyl)phenyl]acetamide]
System Xc^− [1]
  IC50: 0.0158 to 0.0398 µM
System Xc^− [2]
  IC50: 0.0398 to 0.1 µM

## Cc1cc2c(c(F)n1)-c1ccnnc1C(C)C(=O)N2CC(=O)Nc1ccc(C(F)(F)F)cc1 (stereo not shown) [#172, 2-(3-fluoro-5,10-dimethyl-9-oxo-4,8,12,13-tetrazatricyclo[9.4.0.0^2,7]pentadeca-1(11),2(7),3,5,12,14-hexaen-8-yl)-N-[4-(trifluoromethyl)phenyl]acetamide]
System Xc^− [1]
  IC50: 0.0158 to 0.0398 µM
System Xc^− [2]
  IC50: 0.0158 to 0.0398 µM

## O=C(CN1C(=O)Cc2cc(F)ccc2-c2c1cc(N1CC(F)(F)C1)nc2F)Nc1ccc(C(F)F)cc1 [#296, 2-[3-(3,3-difluoroazetidin-1-yl)-1,9-difluoro-6-oxo-7H-pyrido[4,3-d][3]benzazepin-5-yl]-N-[4-(difluoromethyl)phenyl]acetamide]
System Xc^− [1]
  IC50: 0.0158 to 0.0398 µM
System Xc^− [2]
  IC50: 0.0398 to 0.1 µM

## Cc1cc2c(c(F)n1)-c1cccnc1[C@@H](C)C(=O)N2CC(=O)Nc1ccc(C(F)(F)F)cc1F [#247, 2-[(10R)-3-fluoro-5,10-dimethyl-9-oxo-4,8,12-triazatricyclo[9.4.0.0^2,7]pentadeca-1(11),2(7),3,5,12,14-hexaen-8-yl)-N-[2-fluoro-4-(trifluoromethyl)phenyl]acetamide]
System Xc^− [1]
  IC50: 0.0398 to 0.1 µM
System Xc^− [2]
  IC50: 0.0398 to 0.1 µM

## Cc1cc2c(cc1C)-n1nccc1CC(=O)N2CC(=O)Nc1ccc(C(F)(F)F)cc1 [#5, 2-(8,9-dimethyl-5-oxo-4H-pyrazolo[5,1-d][1,5]benzodiazepin-6-yl)-N-[4-(trifluoromethyl)phenyl]acetamide]
System Xc^− [1]
  IC50: 0.0398 to 0.1 µM
System Xc^− [2]
  IC50: 0.1 to 0.501 µM

## COc1cnc2c(c1)-c1cnc(C)cc1N(CC(=O)Nc1ccc(Cl)c(F)c1)C(=O)C2C (single isomer, unassigned) [#415, N-(4-chloro-3-fluoro-phenyl)-2-[14-methoxy-5,10-dimethyl-9-oxo-4,8,12-triazatricyclo[9.4.0.0^2,7]pentadeca-1(15),2,4,6,11,13-hexaen-8-yl]acetamide]
System Xc^− [1]
  IC50: < 0.0158 µM
System Xc^− [2]
  IC50: < 0.0158 µM

## CC1C(=O)N(CC(=O)Nc2ccc(C(F)F)cc2)c2cc(C3CC3C(F)(F)F)cc(F)c2-c2cccnc21 (stereo not shown) [#346, N-[4-(difluoromethyl)phenyl]-2-[11-fluoro-5-methyl-6-oxo-9-[2-(trifluoromethyl)cyclopropyl]-5H-pyrido[2,3-d][1]benzazepin-7-yl]acetamide]
System Xc^− [1]
  IC50: 0.0398 to 0.1 µM
System Xc^− [2]
  IC50: 0.0398 to 0.1 µM

## COc1nc(C)cc2c1-c1cccnc1C(C)C(=O)N2CC(=O)Nc1ccc(C(F)(F)F)cc1 (stereo not shown) [#81, 2-(3-methoxy-5,10-dimethyl-9-oxo-4,8,12-triazatricyclo[9.4.0.0^2,7]pentadeca-1(11),2,4,6, 12,14-hexaen-8-yl)-N-[4-(trifluoromethyl)-phenyl]acetamide]
System Xc^− [1]
  IC50: < 0.0158 µM
System Xc^− [2]
  IC50: 0.0158 to 0.0398 µM

## Cc1cc2c(c(F)n1)-c1cccnc1[C@@H](C)C(=O)N2CC(=O)Nc1ccc(C(F)(F)F)cc1 (single isomer, unassigned) [#192]
System Xc^− [1]
  IC50: < 0.0158 µM
System Xc^− [2]
  IC50: < 0.0158 µM

## Cc1cc2c(c(F)n1)-c1cccnc1[C@@H](C)C(=O)N2CC(=O)Nc1ccc(C2CC2(F)F)cc1 (single isomer, unassigned) [#146]
System Xc^− [1]
  IC50: 0.1 to 0.501 µM
System Xc^− [2]
  IC50: 0.0398 to 0.1 µM

## O=C(CN1C(=O)Cc2ccccc2-c2c1cc(C(F)F)nc2Cl)Nc1ccc(C(F)F)cc1 [#339, 2-[1-chloro-3-(difluoromethyl)-6-oxo-7H-pyrido[4,3-d][3]benzazepin-5-yl]-N-[4-(difluoromethyl)phenyl]acetamide]
System Xc^− [1]
  IC50: < 0.0158 µM
System Xc^− [2]
  IC50: < 0.0158 µM

## Cc1cc2c(c(=O)n1C)-c1cccnc1[C@@H](C)C(=O)N2CC(=O)Nc1ccc(C(F)F)cc1 (single isomer, unassigned) [#177, Enantiomer (10R) or (10S) of N-[4-(difluoromethyl)phenyl]-2-[4,5,10-trimethyl-3,9-dioxo-4,8,12-triazatricyclo[9.4.0.0^2,7]pentadeca-1(11),2(7),5,12,14-pentaen-8-yl]acetamide]
System Xc^− [1]
  IC50: < 0.0158 µM
System Xc^− [2]
  IC50: < 0.0158 µM

## Cc1cc2c(c(F)n1)-c1c(F)cccc1CC(=O)N2CC(=O)Nc1ccc(C(F)(F)F)cc1 [#87, 2-(1,11-difluoro-3-methyl-6-oxo-7H-pyrido[4,3-d][3]benzazepin-5-yl)-N-[4-(trifluoromethyl)phenyl]acetamide]
System Xc^− [1]
  IC50: 0.0398 to 0.1 µM
System Xc^− [2]
  IC50: 0.1 to 0.501 µM

## Cc1cc2c(c(=O)n1C)-c1ccc(F)cc1C(C)C(=O)N2CC(=O)Nc1ccc(Cl)c(F)c1 (single isomer, unassigned) [#174, N-(4-chloro-3-fluoro-phenyl)-2-(9-fluoro-2,3,7-trimethyl-1,6-dioxo-7H-pyrido[4,3-d][3]benzazepin-5-yl)acetamide]
System Xc^− [1]
  IC50: < 0.0158 µM
System Xc^− [2]
  IC50: < 0.0158 µM

## CC1C(=O)N(CC(=O)Nc2ccc(Cl)c(F)c2)c2cc(F)nc(OCCO)c2-c2cccnc21 (stereo not shown) [#376, N-(4-chloro-3-fluoro-phenyl)-2-[5-fluoro-3-(2-hydroxyethoxy)-10-methyl-9-oxo-4.8,12-triazatricyclo[9.4.0.0^2,7]pentadeca-1(15),2,4,6,11,13-hexaen-8-yl]acetamide]
System Xc^− [1]
  IC50: 0.0398 to 0.1 µM
System Xc^− [2]
  IC50: 0.0158 to 0.0398 µM

## COc1ccc2c(c1)C(C)C(=O)N(CC(=O)Nc1ccc(C(F)(F)F)cc1)c1cc(C)nc(Cl)c1-2 (stereo not shown) [#393, 2-(1-chloro-9-methoxy-3,7-dimethyl-6-oxo-7H-pyrido[3,4-a][3]benzazepin-5-yl)-N-[4-(trifluoromethyl)phenyl]acetamide]
System Xc^− [1]
  IC50: 0.0158 to 0.0398 µM
System Xc^− [2]
  IC50: 0.0398 to 0.1 µM

## CC1C(=O)N(CC(=O)Nc2ccc(C(F)F)cc2)c2cc(C#N)cc(Cl)c2-c2ccnn21 (stereo not shown) [#388, 2-(11-chloro-9-cyano-5-methyl-6-oxo-5H-pyrazolo[1,5-d][1,4]benzodiazepin-7-yl)-N-[4-(difluoromethyl)phenyl]acetamide]
System Xc^− [1]
  IC50: 0.0158 to 0.0398 µM
System Xc^− [2]
  IC50: 0.0158 to 0.0398 µM

## CC1C(=O)N(CC(=O)Nc2ccc(C(F)F)cc2)c2cc(C(F)F)c(=O)n(C)c2-c2ccccc21 (single isomer, unassigned) [#357, 2-[3-(difluoromethyl)-1,7-dimethyl-2,6-dioxo-7H-pyrido[3,2-d][3]benzazepin-5-yl]-N-[4-(difluoromethyl)phenyl]acetamide]
System Xc^− [1]
  IC50: 0.0158 to 0.0398 µM
System Xc^− [2]
  IC50: 0.0158 to 0.0398 µM

## COc1cc2c(c(F)n1)-c1cc(F)cnc1C(C)C(=O)N2CC(=O)Nc1ccc(Cl)c(F)c1 (single isomer, unassigned) [#403, N-(4-chloro-3-fluoro-phenyl)-2-[3,14-difluoro-5-methoxy-10-methyl-9-oxo-4,8,12-triazatricyclo[9.4.0.0^2,7]pentadeca-1(11),2(7),3,5,12,14-hexaen-8-yl]acetamide]
System Xc^− [1]
  IC50: < 0.0158 µM
System Xc^− [2]
  IC50: < 0.0158 µM

## CC1C(=O)N(CC(=O)Nc2ccc(Cl)c(F)c2)c2cc(F)cc(F)c2-c2cncnc21 (single isomer, unassigned) [#372, N-(4-chloro-3-fluoro-phenyl)-2-[9,11-difluoro-5-methyl-6-oxo-5H-pyrimido[4,5-d][1]benzazepin-7-yl]acetamide]
System Xc^− [1]
  IC50: 0.0158 to 0.0398 µM
System Xc^− [2]
  IC50: < 0.0158 µM
